Experimental data as given in US6491950B1, “Controlled release pharmaceutical composition” (Kos Pharmaceuticals, Inc., priority 2000, dated 2002).
“Also recorded” adds a separate entry of the source. Where a name gives a salt, the structure may show the parent alone.

Test: In vitro dissolution procedure, USP Basket Method (Apparatus I)
Assay type: physicochemical
Settings: 24 hours; for release of medicament, dependence on type of medicament: Example 6, FIG. 6, 20% medicament, Methocel E10 P 3%, polysorbate 80 1%; for release of medicament, dependence on amount of high melting glyceride: Example 1, FIG. 1, Compritol 888 15-30%, hydrochloride; for release of medicament, dependence on amount of surfactant: Example 7, FIG. 7, polysorbate 80 2.5, 5.0, 10.0%
Method: The dissolution release of the formulations was determined by the USP Basket Method (Apparatus I). By this method, samples are tested in a 40 mesh basket rotating at 100 RPM. Release media were used in a volume of 900 ml per dissolution vessel, maintained at 37° C. Double distilled deionized water was generally used as the dissolution media. Some formulations were also evaluated in simulated gastric fluid (0.1N hydrochloric acid, pH=1.2, no enzyme added) or simulated intestinal fluid (0.05 M phosphate buffer, pH=7.4, no enzyme added). Nine samples of 3.0 ml each were automatically collected at 2, 4, 6, […], 12, 14, 20 and 24 hours. The absorbency of the samples were measured at the peak wavelength in the ultraviolet spectrum with Hewliet Packard model 8453 spectrophotometer. The absorbency values were converted to percentages of added medicament that was released.

Compound: COCCc1ccc(OCC(O)CNC(C)C)cc1 (stereo not shown) [metoprolol tartrate]
- release of medicament, dependence on type of medicament (Compritol 888 25%, soybean oil): released faster than niacin or caffeine
- release of medicament, low hydroxypropyl ether celluloses (Example 11, FIG. 11, metoprolol tartrate 20%, LH 11, LH 22 or LH 30 3%, olive oil): sustained over a 24 hour period; also recorded: essentially the same for each cellulosic polymer of the formulation
- release of medicament, dependence on amount of Compritol 888 (Example 12, FIG. 12, metoprolol tartrate 20%, Compritol 888 15-35%, olive oil): sustained over 24 hours; also recorded: higher at the higher amounts of compritol

Compound: Cn1c(=O)c2c(ncn2C)n(C)c1=O [caffeine]
- release of medicament, dependence on cellulosic polymer (Example 9, FIG. 9, caffeine 20%, Methocel E10 P, Methocel K100M, Ethocel P20 or no polymer, olive oil): faster when the formulation contains Methocel K100M than Ethocel P20; also recorded: sustained over a 24 hour period

Compound: OCCOCCN1CCN(C(c2ccccc2)c2ccc(Cl)cc2)CC1 (stereo not shown) [hydroxyzine hydrochloride]
- release of medicament, dependence on amount of high melting glyceride (hydroxyzine HCl 20%, soybean oil): moderately faster as the amount of higher fatty acid ester in the formulation is increased over a small range and then levels off
- release of medicament, dependence on amount of high melting glyceride (hydroxyzine HCl 20%, soybean oil, listed as hydroxyzine HCl): consistent sustained release over 24 hours
- release of medicament, dependence on type of oil (Example 2, FIG. 2, hydroxyzine HCl 20%, Compritol 888 25%, oil 51%): sustained at the same level over the period
- release of medicament, dependence on type of high melting glyceride (Example 3, FIG. 3, hydroxyzine HCl 20%, glyceride 25%, soybean oil): fastest with Precirol AT05 slowest with Compritol 888/WL 2155, and intermediate with Compritol 888
- release of medicament, dependence on type of cellulosic polymer (Example 4, FIG. 4, hydroxyzine HCl 20%, polymer 3% (Methocel E10 P, K15M, A4M, Ethocel P20)): released considerably faster from a formulation of Methocel K15M than Ethocel P20
- release of medicament, dependence on type of medicament (Compritol 888 25%, soybean oil): released faster than niacin or caffeine

Compound: O=C(O)c1cccnc1 [niacin]
- release of medicament, dependence on amount of surfactant (niacin 20%, olive oil): faster the higher the level of the surfactant above a level of about 5.0% of the total amount of the formulation
- release of medicament, dependence on amount of surfactant (niacin 20%, olive oil, listed as Niacin): sustained over 24 hours
- release of medicament, with or without cellulosic polymer (Example 8, FIG. 8, niacin 20%, Methocel E10 P 3% or none, olive oil): released faster from a formulation containing Methocel E10P than from a formulation devoid of the cellulosic polymer
